Reference: patent publication EP0563345B1, “NOVEL 4-ARYLPIPERAZINES AND 4-ARYLPIPERIDINES” (MCNEILAB, INC., priority 1991, dated 1993)
Counter-ions that a name gives are not always drawn.

Legend:
[1] = system: Male, Fischer 344 rats; assay: Block of Conditioned Avoidance Responding (Rat) test (CAR); conditions: for CAR 5 mg/kg IP Administration (% change CAR) / CAR 15 mg/kg IP Administration (% change CAR): negative number = blockade of CAR
Source text: Apparatus: Rat operant chambers, housed within sound attenuated booths, both from Capden Instruments Ltd., were used in this test. The test chamber (8" H x […] D) is constructed of aluminum and plexiglass with floor grid bars of stainless-steel (1/8" O.D.) spaced 9/16" apart. A stainless-steel operation level 1-1/2" wide projects 3/4" into the chamber and is positioned 2-2/8" above the grid floor. The shock stimulus is delivered via the grid floor by a Coulbourn Instruments solid state module. The parameters of the test and the collection of data are controlled automatically.
The rats are trained for two weeks to approach criterion levels in the avoidance test (90% avoidance rate). One-hour training sessions are run at about the same time each day for four or five days a week. The training session consists of 120 trials, with the conditioned stimuli presented every 30 sec. A trial begins with presentation of the conditioned stimuli (a light and a tone). If the rat responds by depressing the operant lever during the 15-second presentation of the conditioned stimuli, the trial is terminated and the animal is credited with a CAR. Failure to respond during the conditioned stimuli causes the presentation of the unconditioned stimulus (UCS), a 0.7 mA shock which is accompanied by a light and tone for five seconds. If the rat depressed the lever within the ten-second period, the shock and trial are terminated and an escape response recorded. If the rat fails to depress the lever during the UCS (shock), the trial is terminated after ten seconds of shock and the absence of a response is scored as a failure to escape. Intertrial level presses have no effect. If a rat performs at the 90% CAR level for two weeks, it is then run twice a week on the test schedule (see below) until baseline performance stabilized.
Trained rats are run in a one-hour session on two consecutive days at the same time and in the same test chamber each day. The sessions consist of 60 trials, one every minute. The conditioned stimuli are presented for 15 sec (maximum) and the unconditioned stimuli five sec (maximum). On Day 1, a vehicle solution is administered to the rats at a time preceding the trial run corresponding to the pretreatment time for the test compound. The route of administration and the volume of vehicle are also matched to that of the test compound.
The percent change in CAR on the drug treatment day compared to vehicle pretreatment day is the key measure. The percent change (% change) in CAR is determined using the following formula: % change CAR = ((% CAR for Day 2/% CAR for Day 1) x 100)-100 [formula]
A negative number indicates a blockade of CAR, whereas a positive number would indicate increased CAR. The test results are reported as the mean % change for the group of rats. Failure to escape, a measure of the general sedative potential of the compound, was calculated for each animal as follows: % Failures = # of Failures to Escape/# of trials [formula]
The % failures, viz., loss of escape, is also reported as a group mean. Failures to escape are monitored closely and a session is terminated if ten failures occurred.
In the Tables and formulas therein, OiPr is isopropoxy, Me is methyl, MeO is methoxy, Et is ethyl, Ph is phenyl, n-Bu is normal butyl, cC6H11 is cyclohexyl, BOC is t-butyloxycarbonyl, Ac is acetyl, and NT is not tested in that partcular test. The escape loss numbers are shown at CAR 5 mg/kg unless otherwise noted.

[2] = target: T1, D-2 (dopamine-2) receptors (Rattus norvegicus, UniProt P61169); assay: biochemical; type: binding, male, Wistar rats; conditions: rat striatum P2 fraction, 3H-spiperone 0.05 nM; read-out: Receptor Binding (Ki nM) D2
T1 construct: The D2 assay employed a P2 fraction from the striatum, the ligand ^3H-spiperone at a concentration of 0.05 nM; from tissue; host or cells: rat striatum, P2 fraction (synaptosomal membranes), male Wistar rats
Protocol: The dopamine D2 binding activity of compounds was determined using a P2 fraction (synaptosomal membranes) prepared from male, Wistar rats.
The data from this assay were analyzed by calculating the percent inhibition of the binding of the tritiated ligands by given concentrations of the test compound. Kl values, where given, were obtained from the logit analysis of concentration-inhibition curves.

[3] = system: Male Charles-River rats; assay: Rat Glass Bead Test (propulsive motility of the distal colon); type: in vivo; conditions: mean expulsion time of glass bead
Protocol: The rat glass bead test is used to evaluate the action of compounds on propulsive motility of the distal colon. Male Charles-River rats weighing 50-90 grams are fasted for at least 18 hours in individual cages with water provided. Groups of rats are then dosed by the indicated route at the appropriate pretreatment time. A 4 mm glass bead is then inserted 3.5 cm into the distal colon through the anus using a 4 mm diameter glass rod. Rats are then placed in open top glass jars and observed for 60 minutes. The time for expulsion of the bead is noted for each rat. Rats not expelling the bead after 60 minutes are necropsied and the presence of the bead in the colon confirmed. […] Statistical analysis is done using one way analysis of variance and Fisher's LSD comparison. A probability of less than 0.05 is considered to be statistically significant.

T1 sequence (P61169 whole entry): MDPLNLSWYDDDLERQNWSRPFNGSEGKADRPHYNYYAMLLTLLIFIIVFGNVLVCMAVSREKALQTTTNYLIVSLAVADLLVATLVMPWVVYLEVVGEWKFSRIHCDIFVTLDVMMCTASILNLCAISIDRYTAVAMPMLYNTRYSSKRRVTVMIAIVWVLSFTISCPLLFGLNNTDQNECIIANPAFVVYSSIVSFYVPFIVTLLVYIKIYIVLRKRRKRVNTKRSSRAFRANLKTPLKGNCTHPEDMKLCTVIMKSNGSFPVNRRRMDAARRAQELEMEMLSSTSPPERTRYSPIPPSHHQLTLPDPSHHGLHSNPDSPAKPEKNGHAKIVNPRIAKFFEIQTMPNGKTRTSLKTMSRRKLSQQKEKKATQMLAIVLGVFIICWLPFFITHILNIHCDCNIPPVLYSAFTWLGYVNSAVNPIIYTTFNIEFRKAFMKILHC

Row | SMILES | CAR 5 mg/kg IP Administration (% change CAR) [1] | (Escape Loss) % failures to escape ([1]; at CAR 5 mg/kg IP) | Ki [2] | Glass bead expulsion time ([3]; IP, 1.0 mg/kg) | CAR 15 mg/kg IP Administration (% change CAR) [1] | (Escape Loss) % failures to escape ([1]; at CAR 15 mg/kg IP) | Glass bead expulsion time ([3]; PO, 40.0 mg/kg) | Glass bead expulsion time ([3]; PO, 10.0 mg/kg)
1 | CC(C)Oc1ccccc1N1CCN(Cc2cccc(C(=O)N3CCCC(C)(C)C3)c2)CC1 [Compound 57] | -86% | 25% | 4.8 nM | 22 min | – | – | – | –
2 | CC1CCN(C(=O)c2cccc(CN3CCN(c4ccccc4OC(C)C)CC3)c2)CC1 [Compound 58] | -81% | 9% | 9 nM | 29 min | – | – | – | –
3 | CC(C)Oc1ccccc1N1CCN(Cc2cccc(C(=O)N3[C@H](C)CCC[C@@H]3C)c2)CC1 [Compound 59, 1-[3-[[4-[2-(1-Methylethoxy)phenyl]-1-piperazinyl]methyl]-benzoyl]-2,6-dimethylpiperidine hydrochloride (3:2)] | -72% | 10% | 7.2 nM | 43 min | – | – | – | –
4 | COc1cc2c(cc1OC)CN(C(=O)c1cccc(CN3CCN(c4ccccc4OC(C)C)CC3)c1)CC2 [Compound 60] | – | – | 11 nM | 18 min | -93% | 7% | – | –
5 | CC(C)Oc1ccccc1N1CCN(Cc2cccc(C(=O)N3CCN(c4ccccc4)CC3)c2)CC1 [Compound 62] | -28% | 23% | 10.4 nM | 21 min | – | – | – | –
6 | CCOC(=O)N1CCN(C(=O)c2cccc(CN3CCN(c4ccccc4OC(C)C)CC3)c2)CC1 [Compound 63] | -20% | 1% | 121 nM | 41 min | – | – | – | –
7 | CCCCN(C)C(=O)c1cccc(CN2CCN(c3ccccc3OC(C)C)CC2)c1 [Compound 70] | -68% | 2% | 15 nM | 14 min | – | – | – | –
8 | CC(=O)N(C)C(=O)c1cccc(CN2CCN(c3ccccc3OC(C)C)CC2)c1 [Compound 73] | -48% | 22% | – | – | – | – | 25 min | –
9 | CC(C)Oc1ccccc1N1CCN(Cc2cccc(C(N)=O)c2)CC1 [Compound 77] | -89% | 27% | 46 nM | 12 min | – | – | – | –
10 | CC(C)Oc1cc(F)ccc1N1CCN(Cc2cccc(C(=O)N3CCCCC3)c2)CC1 [Compound 78] | -82% | 4% | – | 28 min | – | – | – | –
11 | CC(C)Oc1cc(F)ccc1N1CCN(Cc2cccc(C(=O)N3CCCCCC3)c2)CC1 [Compound 79] | -86% | 44% | 12 nM | 17 min | – | – | – | –
12 | CCCc1ccccc1N1CCN(Cc2cccc(C(=O)N3CCCCC3)c2)CC1 [Compound 81] | – | – | – | 22 min | -8% | 0% | – | –
13 | CCCc1ccccc1N1CCN(Cc2cccc(C(=O)N3CCCCCC3)c2)CC1 [Compound 82] | – | – | 41 nM | 16 min | -8% | 0% | – | –
14 | CCOc1ccccc1N1CCN(Cc2cccc(C(=O)N3CCCCCC3)c2)CC1 [Compound 83] | -97% | 26% | – | 21 min | – | – | – | –
15 | COc1ccccc1N1CCN(Cc2cccc(C(=O)N3CCCCCCC3=O)c2)CC1 [Compound 86] | – | – | 121 nM | 22 min | -27% | 17% | – | –
16 | O=C(c1cccc(CN2CCN(c3ccccc3C(F)(F)F)CC2)c1)N1CCCCC1 [Compound 88] | – | – | 281 nM | 29 min | -60% | 7% | – | –
17 | O=C(c1cccc(CN2CCN(c3ccccc3Cl)CC2)c1)N1CCCCC1 [Compound 89] | – | – | – | 16 min | -68% | 0% | – | –
18 | N#Cc1ccccc1N1CCN(Cc2cccc(C(=O)N3CCCCC3)c2)CC1 [Compound 90] | -74% | 5% | – | 27 min | – | – | – | –
19 | O=C(c1cccc(CN2CCN(c3cccc(C(F)(F)F)c3)CC2)c1)N1CCCCC1 [Compound 92] | – | – | – | 17 min | -72% | 3% | – | –
20 | CC(C)Oc1ccccc1N1CCN(Cc2ccc(C(=O)N3CCCCC3)cc2)CC1.Cl.Cl [Compound 103, 1-[4-[[4-[2-(1-Methylethoxy)phenyl]-1-piperazinyl]methyl]benzoyl]piperidine Dihydrochloride] | – | – | ~100 nM | 43 min | – | – | – | –
21 | CC(C)Oc1ccccc1N1CCN(Cc2cccc(S(=O)(=O)N3CCCC(C)(C)C3)c2)CC1 [Compound 104] | -4% | 2% | 45 nM | – | – | – | – | 50 min
22 | CC(C)Oc1ccccc1N1CCN(Cc2cccc(S(=O)(=O)N3CCCCC3)c2)CC1 [Compound 105] | -7% | 0% | 18 nM | – | – | – | – | 10 min
23 | CC(C)Oc1ccccc1N1CCN(Cc2ccccc2C(=O)N(C)C2CCCC2)CC1 [Compound 112] | – | – | 16 nM | 11 min | – | – | – | –
24 | CC(C)Oc1ccccc1N1CCN(Cc2ccccc2C(=O)N2CCCCCC2)CC1 [Compound 113] | – | – | 11 nM | – | – | – | – | 15 min
